Data as given in patent US11413261B2, “Pharmaceutical composition for treating cancer comprising lactate metal salt” (METIMEDI PHARMACEUTICALS CO., LTD, priority 2014, dated 2022).

Experiments:
[1] = system: human colorectal cancer cell line HCT-116; conditions: 5 mM calcium lactate individually, 10 days
[2] = system: VEGF (vascular endothelial growth factor); assay: VEGF mRNA and protein expression; format: cell-based, human; conditions: HCT-116 and HT-29; 2.5 mM, 24 hours, hypoxia condition
Method: Human colorectal cancer cell lines (HCT-116 and HT-29) were treated with 2.5 mM calcium lactate under hypoxia condition and cultured for 24 hours. Then, mRNA expression levels and protein expression levels of VEGF in each of the cultured cancer cell lines were analyzed (FIGS. 16a and 16b). In this case, human colorectal cancer cell lines cultured without treating with calcium lactate under normoxia or hypoxia condition were used as control groups.

[3] = system: HIF-1α (hypoxia inducible factor 1α); assay: HIF-1α protein expression (Western blot); format: cell-based, human; conditions: HCT-116 and HT-29, hypoxia condition
Method: Human colorectal cancer cell lines (HCT-116 and HT-29) were cultured for 24 hours, under normoxia or hypoxia condition either treated or not treated with 2.5 mM calcium lactate. Then, a Western blot using an anti-HIF-1α antibody was conducted to each of the cultured cancer cell lines (upper part of FIG. 15).
Then, the human colorectal cancer cell lines (HCT-116 and HT-29) were treated with various concentrations (0.5 mM, 1.5 mM and 2.5 mM) of the calcium lactate under hypoxia condition and cultured and change in expression levels of HIF-1α in a nucleus of a cancer cell was measured (lower part of FIG. 15).

[4] = system: human melanoma cell lines (SKMEL-02 and SKMEL-28); assay: Colony-forming ability of melanoma cell lines in solid medium; format: cell-based
Method: Firstly, human colorectal cancer cell lines (HCT-116, HT-29, and DLD-1) were inoculated into solid mediums including various concentrations (0 mM, 0.5 mM, 1.5 mM, or 2.5 mM) of calcium lactate and cultured for 10 days. After the completion of the culture, the cells were immobilized and stained with hematoxylin. Then, the number of cancer cells formed into colonies was counted (FIG. 23).
Then, using the same method as described above, human melanoma cell lines (SKMEL-02 and SKMEL-28) were inoculated into solid mediums including various concentrations (1 mM, 2.5 mM, or 5 mM) of calcium lactate and culture was performed, and the number of cancer cells formed into colonies were counted (FIGS. 24a and 24b).

[5] = system: human colorectal cancer cell lines (HCT-116 and HT-29); assay: Calcium level in cancer cells (Fluo-3/AM, confocal microscope); format: cell-based; conditions: 2.5 mM, 24 hours, vs untreated
Method: Each of human colorectal cancer cell lines (HCT-116 and HT-29) with the cell number of 5×10^5 cells cultured in a cancer cell culture medium (RPMI1640 medium including 10% FBS and 1% penicillin/streptomycin) at 37° C. with 5% CO2 was treated with 2.5 mM calcium lactate and then cultured for 24 hours. The cultured cancer cells were treated with 10 μM Fluo-3/AM calcium indicator and 25% Pluronic F-127, reacted at 37° C. for 30 minutes, applied with fluorescence probes, and then photographed with a confocal microscope (FIG. 2). In this case, cancer cells untreated with calcium lactate were used as control groups.

MDA-MB231 cell line = assay: Cell apoptosis rate by flow cytometry (FITC Annexin V / PI); format: cell-based; conditions: 2.5 mM, 24 hours (untreated 10.17%)
Method: (§1) Breast cancer cell lines (MCF-7 and MDA-MB231) were cultured for 24 hours with or without treating with 2.5 mM calcium lactate. Each of the breast cancer cell lines were treated with 5 μl of FITC Annexin V and 5 μl of PI and reacted at room temperature for 15 minutes and then, a flow cytometry analysis was conducted thereto using a FACS Calibur (BD Bioscience, USA) to evaluate staining thereof and thus measure a cancer cell apoptosis rate (FIG. 21a-21f).

MCF-7 cell line = assay: as above; format: cell-based; conditions: 2.5 mM, 24 hours (untreated 9.63%)
Method: as §1

[6] = system: PDH (pyruvate dehydrogenase); assay: PDH protein expression (immunofluorescence); format: cell-based, human; conditions: HCT-116 and HT-29; 2.5 mM, 24 hours
Method: After the same method as that of Example 6-1 except that an anti-rabbit PDH antibody was used instead of the anti-rabbit LDHB antibody was performed, protein expression levels of PDH in human colorectal cancer cell lines (HCT-116 and HT-29) treated with calcium lactate were measured (FIG. 13).

VEGF = VEGF expression in tumor tissues of animal model; format: in vivo, Balb/c mice; conditions: HT-29 tumor tissue
Method: (§2) A colorectal cancer cell (HT-29) cultured in an RPMI1640 medium and then diluted with PBS was subcutaneously implanted into the flank of Balb/c mice. The mice were bred until the colorectal cancer cell grew to about 5 mm. Then, four groups were set up; a control group untreated with calcium lactate for 30 days, an experimental group 1 (peroral, P.O.) administered with 2.5 mM calcium lactate by oral administration, an experimental group 2 (intra tumor, I.T) injected with 2.5 mM calcium lactate around tumor, and an experimental group 3 (subcutaneous, S.C) subcutaneously injected with 25 mM calcium lactate (FIG. 27).
(§3) Colorectal cancer tissues were extracted from the mice of the control group or the experimental group 1 set up in Example 10-1, and expression levels of HIF-1α and VEGF involved in metastasis, invasion, and angiogenesis of tumor expressed therein were compared (FIG. 29). In this case, GAPDH was used as internal control groups.
as §3, with “group 2” for “group 1”, “tumor” for “tumor expressed”, “(FIG. 31).” for “(FIG. 29).”

GLUT 1 and HK2 = GLUT 1 and HK2 expression under hypoxia (real-time PCR, Western blot); format: cell-based, human; conditions: HCT-116 and HT-29; hypoxia condition
Method: Human colorectal cancer cell lines (HCT-116 and HT-29) were cultured under normoxia or hypoxia condition. The cell lines cultured under the hypoxia condition were treated with calcium lactate, and then, expression levels of GLUT 1 and HK2 in each of the cultured cell lines were compared at the mRNA and protein expression levels (FIG. 7).

PARP = PARP expression in tumor tissue of xenograft animal model; format: in vivo, Balb/c mice; conditions: HT-29 tumor tissue; 2.5 mM P.O. or 2.5 mM I.T.; vs control group
Method: as §2
Colorectal cancer tissues were extracted from the mice of the control group, the experimental group 1, or the experimental group 2 set up in Example 10-1, and expression levels of PARP and truncated PARP contributing to stabilization of cancer cells expressed therein were compared (FIG. 28).

CC(O)C(=O)[O-].CC(O)C(=O)[O-].[Ca+2] (stereo not drawn) [calcium lactate]
survival rate [1]: about 60%
VEGF level (mRNA and protein) [2]: decreased
protein expression levels of HIF-1α ([3]; 2.5 mM, 24 hours): not expressed
expression levels of HIF-1α in a nucleus of a cancer cell ([3]; 0.5, 1.5, 2.5 mM): suppresses the expression levels of HIF-1α concentration dependently
number of colonies ([4]; SKMEL-02, 5 mM (untreated 105 to 168)): about 49 colonies
number of colonies ([4]; SKMEL-02 and SKMEL-28, with increasing concentration (1, 2.5, 5 mM)): decreased
number of colonies ([4]; SKMEL-28, 5 mM): colony was not formed
concentration of calcium in cancer cells [5]: increased
cell apoptosis rate (MDA-MB231 cell line): 13.05%
cell apoptosis rate (MCF-7 cell line): 33.8%
protein expression levels of PDH [6]: sharply increased
expression of VEGF (VEGF; experimental group 1, 2.5 mM oral administration): inhibited
expression of VEGF (VEGF; experimental group 2, 2.5 mM injected around tumor): inhibited
expression levels of GLUT 1 and HK2 (activation of glycolysis) (GLUT 1 and HK2): reduced
PARP degrading activity (PARP): increased
